Holding throughout (assay): DTP human tumour cell line panel, 48 h
Experiment [1] has as its system LOX IMVI melanoma.
Experiment [2] deals with OVCAR-3 ovarian.
In experiment [3] the test system is COLO 205 colon.
Experiment [4] has as its system SR leukemia.
Experiment [5] has as its system SNB-75 CNS.
Experiment [6] has as its system SF-539 CNS.
For experiment [7], the system named is SK-MEL-2 melanoma.
Experiment [8] deals with SK-MEL-28 melanoma.
Experiment [9] relates to HCT-15 colon.
Experiment [10] concerns HL-60(TB) leukemia.

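Following 48 hours of exposure in 96-well plates, responses at five concentrations were used to interpolate endpoints linearly. Abbreviation: GI50, concentration required for 50% inhibition of growth. TGI: concentration producing complete growth inhibition.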

As to `COC(=O)/C(=C\c1ccc(N(CCC#N)CCC#N)cc1)NC(=O)c1cc([N+](=O)[O-])ccc1Cl`, the TGI in [1] is greater than 100 µM; in experiment [2], greater than 100 µM; in [3], greater than 100 µM; in experiment [4], 81.5 µM; in experiment [5] it was greater than 100 µM; in experiment [6], greater than 100 µM. Moreover, the TGI in experiment [7], in experiment [8] and in experiment [9] was greater than 100 µM each time.
Regarding `O=C(O)CN(c1ccccc1)S(=O)(=O)c1ccc([N+](=O)[O-])cc1`, the TGI in [1], in experiment [10], in [2], in experiment [3], in experiment [6] and in [7] was greater than 100 µM throughout. The compound also came in with a TGI in [9] greater than 100 µM.
For `CCOc1ccccc1NC(=O)C(=O)Cc1nc2ccccc2s1`, the TGI in experiment [10], in experiment [2], in experiment [3], in experiment [4], in experiment [5] and in [6] was greater than 100 µM each time. Besides, the TGI in experiment [7], in [8] and in experiment [9] was greater than 100 µM throughout.
With `CO/N=C(/C)c1cccc(Nc2cc(-c3ccccc3)nc3ccc(OC)cc23)c1`, the GI50 in [3] is 33.1 µM; in experiment [5] it was 42.9 µM; in experiment [6], 2450 nM; in [7], 50300 nM; in experiment [8], 28.6 µM; in experiment [9] it was 14.9 µM. In addition, the TGI was 97.8 µM in experiment [3]; greater than 100 µM in experiment [5]; 4.89 µM in experiment [6]; greater than 100 µM in experiment [7]; 66.8 µM in experiment [8]; 41.1 µM in experiment [9].
Take `COc1ccc2c3c(Nc4ccc(/C(C)=N/O)cc4)[nH]c4ccccc4c-3c(N=O)c2c1`: the GI50 was 1260 nM in [10]; 19.5 µM in [3]; 1.47 µM in [4]; 44.9 µM in experiment [5]; 17300 nM in [6]; 18400 nM in [7]. The figures for the GI50 in [8] and in experiment [9] were 27 µM and 1.81 µM, respectively. In addition, the TGI in experiment [10] was 3.06 µM; in experiment [3], 34.9 µM; in experiment [4], 4.27 µM; in experiment [5], 75.3 µM; in experiment [6] it was 34.6 µM; in experiment [7], 40.6 µM. Moreover, the values for the TGI in [8] and in [9] were 50.6 µM and 4.56 µM, respectively.
Take `CC(=O)OC1C2CCC1C1C2C2(Cl)C(Cl)=C(Cl)C1(Cl)C2(Cl)Cl` (stereo not given): the TGI in [1] amounted to 29.1 µM; in experiment [2], 24 µM; in [3], 28.3 µM; in experiment [4], 24.6 µM; in [5], 29.8 µM; in experiment [6], 30.7 µM. Further, the TGI in [7] came out at 22.2 µM; in experiment [8], 34.3 µM.
For the compound `O=C(CSC(c1ccccc1)c1ccccc1)N/N=C/c1ccco1`, the GI50 in experiment [1] was 1.48 µM; in experiment [2], 1920 nM; in [3] it was 20.3 µM; in experiment [5] it was 17.1 µM; in experiment [6] it was 2070 nM; in experiment [7], 1400 nM. Besides, the GI50 is 20.8 µM in experiment [8] and 2.12 µM in experiment [9]. Also, the TGI in [1] came out at 5.2 µM; in [2], 3.49 µM; in experiment [3], 52 µM; in experiment [5], 58.1 µM; in experiment [6], 7.55 µM; in [7], 3.76 µM. For the same compound, the values for the TGI in experiment [8] and in experiment [9] were 50.7 µM and 4.38 µM, respectively.
Turning to `CCN(CC)c1cc2oc3cc(N)cc(=N)c-3nc2cc1C`, the GI50 in experiment [2] is 1780 nM; in experiment [3], 1.9 µM; in experiment [5], 2.84 µM; in experiment [6], 3440 nM; in experiment [7], 2010 nM; in [8] it was 5.7 µM. Moreover, in [9], the GI50 is 3.14 µM. For the same compound, the TGI was 5.63 µM in experiment [2]; 3.95 µM in experiment [3]; 13.4 µM in experiment [5]; 14.2 µM in [6]; 4.69 µM in experiment [7]; 27 µM in [8]. Further, in [9], the TGI was greater than 100 µM.
`N.N.NCCCCCCCCCN.O=C([O-])CC(=O)[O-].O=C([O-])CC(=O)[O-].[Pt+4].[Pt+4]`: the GI50 is greater than 100 µM in experiment [1]; 13400 nM in [10]; greater than 100000 nM in experiment [2]; greater than 100 µM in experiment [3]; greater than 100 µM in experiment [5]; greater than 100000 nM in experiment [6]. Besides, the values for the GI50 in experiment [7], in experiment [8] and in experiment [9] were greater than 100000 nM, 87.5 µM and greater than 100 µM, respectively. For the same compound, the TGI in experiment [1], in experiment [10], in [2], in [3], in [5] and in experiment [6] was greater than 100 µM throughout. The TGI in experiment [7], in [8] and in [9] was greater than 100 µM in each case.
Take `Cc1cccc(N=C2NC(=O)C(CC(=O)Nc3cccc(C)c3C)S2)c1` (stereo not given): the TGI in experiment [1], in experiment [10], in experiment [2], in experiment [3], in experiment [5] and in experiment [7] was greater than 100 µM each time. For the same compound, in experiment [8], the TGI is greater than 100 µM.
For `c1ccc(CSc2nc3ccccc3nc2-c2cccs2)cc1`, the TGI in [10], in [2], in experiment [3], in experiment [5], in experiment [6] and in [7] was greater than 100 µM each time. Besides, the TGI in experiment [8] and in experiment [9] was greater than 100 µM each time.
In the case of `O=C1C(Cl)=C(Nc2ccccc2O)C(=O)N1Cc1ccccc1`, the GI50 in experiment [1] is 16.5 µM; in experiment [2] it was 18000 nM; in experiment [3], 24.2 µM; in experiment [4], 51.7 µM; in [7], 30900 nM; in experiment [8] it was 25.1 µM. Besides, in experiment [9], the GI50 was 19.5 µM. Moreover, the TGI in experiment [1] was 30.1 µM; in experiment [2] it was 31.9 µM; in experiment [3], 46.8 µM; in experiment [4], greater than 100 µM; in [7], 96 µM; in [8] it was 55.4 µM. In addition, the TGI in experiment [9] was 39.9 µM.
On to `CN(C)CCSc1nccc(-c2cc3ccccc3s2)n1`, for which the TGI is 32.2 µM in experiment [1]; greater than 100 µM in [2]; 35.1 µM in [3]; 63.4 µM in experiment [4]; greater than 100 µM in experiment [5]; 37.2 µM in experiment [6]. In addition, the TGI in experiment [7] amounted to 33.5 µM; in [8] it was 40.9 µM; in [9], 37.6 µM.
Turning to `CC1=C(c2cc(C(=O)Nc3ccc(Cl)cc3)nc(=S)[nH]2)Sc2ccccc2N1`, the TGI in experiment [1], in experiment [10], in [2], in experiment [3], in [5] and in experiment [6] was greater than 100 µM in each case. The TGI in [7], in [8] and in experiment [9] was greater than 100 µM each time.
As to `CC[C@@]1(O)C(=O)OCc2c1cc1n(c2=O)Cc2c-1nc1cc(F)c(C)c3c1c2[C@@H](N)CC3`, the GI50 in experiment [10] is less than 10 nM; in experiment [2], 33.9 nM; in experiment [3] it was 0.0265 µM; in [4], less than 0.01 µM; in experiment [5], less than 0.0137 µM; in [6], less than 10 nM. In addition, the GI50 in experiment [7] is 138 nM; in experiment [9] it was 0.0215 µM. For the same compound, the TGI is 0.907 µM in [2]; 0.837 µM in experiment [3]; greater than 100 µM in experiment [4]; 0.101 µM in experiment [5]; 0.0187 µM in experiment [6]; 1.4 µM in [7]. For the same compound, the TGI in [9] was greater than 100 µM.
With `CCC(=O)Nc1ccc(N=NN(C)C)cc1`, the TGI in experiment [1], in [10], in experiment [3], in experiment [5], in experiment [6] and in experiment [7] was greater than 100 µM throughout. In addition, the TGI in experiment [8] and in [9] was greater than 100 µM in each case.
`Cc1ccc(Nc2nnc(-c3ccc4c(c3)OCO4)o2)c(C)c1`: the TGI in experiment [1], in [2], in [3], in experiment [4], in experiment [5] and in experiment [6] was greater than 100 µM each time. The TGI in experiment [7], in [8] and in [9] was greater than 100 µM each time.
Turning to `CC(C)(C)OC(=O)N1N=NC2C1C1CC(OCc3ccccc3)(OCc3ccccc3)C2O1` (stereo not given), the TGI in [1] was 33.7 µM; in experiment [10], 31.9 µM; in experiment [2] it was greater than 100 µM; in experiment [3], greater than 100 µM; in [5], greater than 100 µM; in [7], greater than 100 µM. The TGI is 91.3 µM in experiment [8] and greater than 100 µM in [9].
With `O=C(O)C12CC3(C(=O)O)CC(C(=O)O)(CC(C(=O)O)(C1)C3=O)C2=O`, the TGI in experiment [1], in experiment [2], in [3], in experiment [4], in experiment [5] and in [7] was greater than 100 µM each time. In addition, the TGI in experiment [8] and in experiment [9] was greater than 100 µM throughout.
Regarding `O=C1C(=O)N(c2cc(Cl)ccc2Cl)C(=O)C(=O)C1c1nc2ccccc2o1`, the TGI in experiment [1], in [10], in experiment [2], in experiment [3], in experiment [5] and in experiment [6] was greater than 100 µM in each case. Also, the TGI in experiment [7], in experiment [8] and in experiment [9] was greater than 100 µM each time.
As to `Cc1cc(C)n(-c2nnc3n2N=C(c2ccc(-c4ccccc4)cc2)CS3)n1`, the GI50 was 3.36 µM in experiment [1]; 2310 nM in [2]; 2.23 µM in [3]; 3.06 µM in experiment [4]; 3.24 µM in experiment [5]; 2150 nM in experiment [6]. In addition, the GI50 in [7] is 2580 nM; in [8] it was 3.33 µM; in experiment [9], 3.51 µM. Further, the TGI in [1] is greater than 100 µM; in experiment [2] it was 5.55 µM; in experiment [3] it was 4.77 µM; in experiment [4] it was greater than 100 µM; in [5], 54.8 µM; in experiment [6], 5.2 µM. The TGI in [7] is 7.17 µM; in [8], greater than 100 µM; in experiment [9] it was greater than 100 µM.
As for `COC1=C(Br)C(=O)c2nc(C)ccc2C1=O`, the TGI was 24.3 µM in experiment [1]; 19.5 µM in experiment [2]; 24.6 µM in experiment [3]; 6.79 µM in experiment [4]; 33.8 µM in experiment [5]; 36.1 µM in [6]. The TGI in experiment [7] came out at 30.1 µM; in [8], 33.1 µM; in [9] it was 27.7 µM.
Take `O=S1(=O)OCCOS(=O)(=O)C1Cl`: the TGI in experiment [10], in [2], in [3], in experiment [4], in [5] and in [6] was greater than 100 µM throughout. The TGI in experiment [7] and in [8] was greater than 100 µM in each case.
`COc1cc(C(=O)C/C(CCC(=O)Nc2ccc(Cl)cc2Cl)=N/NC(=O)C(=O)NN)ccc1O`: the TGI in experiment [1], in experiment [10], in experiment [2], in experiment [3], in experiment [5] and in [6] was greater than 100 µM each time. Also, the TGI in experiment [8] and in experiment [9] was greater than 100 µM in each case.
Turning to `Nc1ccc2[nH]cc(CCC(=O)O)c2c1`, the TGI in experiment [1] is greater than 100 µM; in experiment [10], 76.5 µM; in experiment [2], greater than 100 µM; in experiment [3] it was greater than 100 µM; in experiment [5], greater than 100 µM; in experiment [6] it was greater than 100 µM. In addition, the TGI in experiment [7], in experiment [8] and in [9] was greater than 100 µM each time.

Usually TGI stands for the concentration at which net growth stops. A high value points to less potent growth arrest. The term GI50 denotes the concentration giving 50% growth inhibition.

The record behind these values is PubChem BioAssay (NCI).
